The source of these data is patent US20120165230A1, “BIOLOGICALLY PRODUCED CYCLIC AFFINITY TAGS” (LanthioPep B.V., priority 2009, published 2012).

This assay deals with L. lactis MG1363. Kind of assay: Antimicrobial activity: growth inhibition in two-fold dilution series in microwell plate, OD600 after 6 hours. The settings on record: supernatant treated with trypsin to cleave off leader, two-fold dilutions. In kind it is cell-based, Lactococcus lactis. The protocol: FIG. 2. Antimicrobial activity of a truncated nisin mutant containing HPQF (SEQ ID NO:7) in ring C. Lactococcus lactis containing a first plasmid encoding NisB, NisT and NisC and a second plasmid encoding […] (SEQ ID NO:44) was induced. The supernatant was treated with trypsin to cleave off the leader peptide. Series of two-fold dilutions were made in a microwell plate and the peptide's capacity to inhibit the growth of L. lactis MG1363 was tested by measuring OD 600 after six hours of incubation. ∘: control with PBS, ▪: truncated nisin mutant, ▾: supernatant of nisin A-producing L. lactis NZ9700.
The leader was cleaved off with trypsin and the antimicrobial activity was measured as follows: In a microwell plate, 200 μl of supernatant of nisin fusion strain and in other wells, 200 μl of control (positive, e.g., filtered sup of NZ9700 and negative) solutions was added to the wells of the first column. 100 μl medium was added to the remaining empty wells. For each row, 100 μl from the first column was added to the second and, after mixing, from the second to the third, etc., leading to two-fold dilution steps. 100 μl of sensitive strain. MG1363 was added to all wells at low density, OD600: 0.05-0.1. After 6 hours, OD600 was measured.

In the case of “ITSISLCTPGCKTHPQFCNMKEQKLISEED [H14, P15, Q16, F17, ΔG18 mutant of nisin (1-22) with internal strep-tag, coupled to external myc-tag EQKLISEED]”, the “antimicrobial activity (inhibition of growth of L. lactis MG1363)” value runs as follows: (FIG. 2) “clearly has antimicrobial activity”; (FIG. 2, listed as truncated nisin mutant) “still has activity”.
